Assay results from US20260250318A1, “COMPOSITIONS AND METHODS FOR CROSSING THE BLOOD BRAIN BARRIER” (VOYAGER THERAPEUTICS, INC., priority 2022, published 2026).

How the values were obtained:
Conditions in all cases: synthetic library passage 3, intravenous, relative to wild-type AAV9
[1] = tested on: brain, spinal cord, and DRG of the NHPs; test: NGS fold enrichment of synthetic library (passage 3) in NHPs, first cross-species screen; type: in vivo, cynomolgus macaques (Macaca fascicularis)
In short: (§1)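 Passage-3 synthetic capsid library given intravenously […] to NHPs (2-4 years) and BALB/c or C57Bl/6 mice (n=3, 6-8 weeks). After e.g. 28 days, tissue RNA was RT-PCR amplified and NGS-sequenced; values are fold enrichment of each variant relative to wild-type AAV9.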

[2] = tested on: brain; test: NGS fold enrichment of synthetic library (passage 3) in BALB/c mice, first cross-species screen; type: in vivo
In short: as §1

[3] = tested on: brain; test: NGS fold enrichment of synthetic library (passage 3) in C57Bl/6 mice, first cross-species screen; type: in vivo
In short: as §1

[4] = RNA from spinal cord of NHPs, NGS
[5] = RNA from brain of BALB/c mice, NGS
[6] = RNA from brain of C57Bl/6 mice, NGS

Sequence	Fold enrichment over AAV9 in the brain of NHPs ([1]; RNA NGS, brain of NHPs)	Fold enrichment over AAV9 in the spinal cord of NHPs ([1]; RNA NGS, spinal cord of NHPs)	Fold enrichment over AAV9 in the brain of Mice (BALB/c) ([2]; RNA NGS, brain of BALB/c mice)	Fold enrichment over AAV9 in the brain of Mice (C57Bl/6) ([3]; RNA NGS, brain of C57Bl/6 mice)	Fold enrichment over AAV9 in the brain of NHPs ([1]; RNA from brain of NHPs, NGS)	Fold enrichment over AAV9 in the spinal cord of NHPs [1, 4]	Fold enrichment over AAV9 in the brain of Mice (BALB/c) [2, 5]	Fold enrichment over AAV9 in the brain of Mice (C57Bl/6) [3, 6]
GLSNPMPSGQNQQT	2.280 fold	6.033 fold	0.829 fold	1.190 fold				
GLSWPSTSGQNQQT	2.238 fold	0.000 fold	0.610 fold	0.910 fold				
GMDHSRPSGQNQQT	1.627 fold	3.976 fold	0.648 fold	0.918 fold				
GMGRHSASGQNQQT	1.417 fold	6.500 fold	0.389 fold	0.470 fold				
GMRMEYQSGQNQQT	1.729 fold	3.695 fold	0.632 fold	0.644 fold				
GMRTYHLSGQNQQT	9.241 fold	1.939 fold	1.586 fold	2.033 fold				
GMSAHMSSGQNQQT	2.456 fold	5.255 fold	0.947 fold	1.310 fold				
GMTSHSVSGQNQQT	1.850 fold	2.732 fold	0.154 fold	0.220 fold				
GMYEYSQSGQNQQT	1.438 fold	0.000 fold	0.448 fold	1.410 fold				
GNGFSSASGQNQQT	2.493 fold	0.772 fold	0.182 fold	0.240 fold				
GNGHSMRPNQNQQT	1.560 fold	2.341 fold	0.376 fold	0.693 fold				
GNGLYAVSGQNQQT	2.611 fold	9.148 fold	0.213 fold	0.322 fold				
GNGQNQQHSILHGT	1.435 fold	0.000 fold	0.415 fold	0.777 fold				
GNIAGSVSGQNQQT	2.849 fold	1.187 fold	0.257 fold	0.446 fold				
GNILHATSGQNQQT	2.136 fold	0.125 fold	0.424 fold	1.159 fold				
GNIQWQGSGQNQQT	2.468 fold	6.266 fold	0.837 fold	1.182 fold				
GNRDRPSSGQNQQT					1.239 fold	3.947 fold	0.178 fold	0.298 fold
GNSMERTSGQNQQT	2.221 fold	4.177 fold	0.935 fold	1.047 fold				
GNSQVKVSGQNQQT					1.158 fold	4.930 fold	0.728 fold	1.422 fold
GNSSMMGSGQNQQT					1.239 fold	3.856 fold	0.364 fold	0.656 fold
